Results on ten compounds are retold here after ChEMBL document CHEMBL3352756, “Synthesis and evaluation of pyrazolines bearing benzothiazole as anti-inflammatory agents” (Bioorg Med Chem, 2014).

What is called inhibition is the change of the read-out against control, counted positive when it falls. The term inhibition in vivo denotes the percentage by which the read-out fell short of the control.

The test system of series [1] is Rattus norvegicus. The series can be described thus: Toxicity in rat assessed as damage to epithelial layer of stomach at 60 mg/kg, po after 5 hrs. As to conditions: in vivo. Format: organism-based. Also on record: dose 60 mg/kg, route oral.
The subject of series [2] is RAW264.7. The experiment in a line: Antiinflammatory activity in mouse RAW264.7 cells assessed as inhibition of LPS-induced TNF-alpha release at 20 uM after 24 hrs by ELISA. Format: functional. The conditions noted are these: RAW264.7, 24 h.
Series [3] deals with Rattus norvegicus. The experiment in a line: Toxicity in rat assessed as ulceration at 60 mg/kg, po after 5 hrs. The series is classed as organism-based. Also on record: dose 60 mg/kg, route oral. The conditions noted are these: in vivo.
The nature of series [4]: (§1) Cytotoxicity against mouse RAW264.7 cells assessed as cell viability at 20 uM after 24 hrs by MTT assay in presence of LPS. Format: cell-based. As to conditions: RAW264.7 cells, read-out: Activity. On the technique in general: Tetrazolium dyes change colour on reduction, which living cells bring about.
Series [5] relates to Rattus norvegicus. The series can be described thus: Antiinflammatory activity in albino Wistar rat paw edema model assessed as inhibition of carrageenan-induced paw edema at 20 mg/kg, po administered 1 hr prior to carrageenan challenge measured after 3 to 5 hrs by plethysmometry relative to vehicle-treated control. Format: functional. (Carrageenan injected into the paw causes an acute inflammation.)

Series [6] deals with RAW264.7. The description is as §1. Format: cell-based. As to conditions: raw264.7, 24 h, 20 µM.

In the case of `NS(=O)(=O)c1ccc2nc(N3N=C(c4ccc(Cl)cc4)CC3c3ccccc3Cl)sc2c1` (stereo unspecified), the Activity entry in the series with Rattus norvegicus [1] and in the series on Rattus norvegicus [3] was “Non-toxic” throughout. Besides, the inhibition at 20 µM with RAW264.7 [2] stood at 38%. In addition, the viability at 24 h, 20 µM in series [4] was above 90%.

Consider `COc1ccc(C2CC(c3ccc(Cl)cc3)=NN2c2nc3ccc(S(N)(=O)=O)cc3s2)cc1` (stereo unspecified), for which the inhibition at 20 µM in the series on RAW264.7 [2] worked out at 38%. Moreover, the inhibition in vivo at 20 mg/kg with Rattus norvegicus [5] was 67.7%. In addition, in the series with RAW264.7 [6], the Activity result is reported as “Toxic”.

With `Cc1ccc(C2CC(c3ccc(Cl)cc3)=NN2c2nc3ccc(S(N)(=O)=O)cc3s2)cc1` (stereo unspecified), the inhibition at 20 µM in the series with RAW264.7 [2] worked out at 38%.

In the case of `COc1ccc(C2CC(c3ccc(Br)cc3)=NN2c2nc3ccc(S(N)(=O)=O)cc3s2)cc1` (stereo unspecified), in the series on RAW264.7 [2], the inhibition at 20 µM stood at 38%. Also, the viability at 24 h, 20 µM in series [4] stood at 86%.

As to `NS(=O)(=O)c1ccc2nc(N3N=C(c4ccc(Br)cc4)CC3c3ccc(Cl)cc3)sc2c1` (stereo unspecified), the Activity result with Rattus norvegicus [1] and in the series with Rattus norvegicus [3] was “Non-toxic” each time. Moreover, the inhibition at 20 µM with RAW264.7 [2] turned out to be 71.7%. In series [4], the viability at 24 h, 20 µM is 90%.

Take `NS(=O)(=O)c1ccc2nc(N3N=C(c4ccc(Br)cc4)CC3c3ccc(F)cc3)sc2c1` (stereo unspecified): in the series on RAW264.7 [2], the inhibition at 20 µM was 38%. Further, the viability at 24 h, 20 µM in series [4] is 86%.

In the case of `NS(=O)(=O)c1ccc2nc(N3N=C(c4ccc(Cl)cc4)CC3c3ccccc3)sc2c1` (stereo unspecified), the Activity result with Rattus norvegicus [1] and with Rattus norvegicus [3] was “Non-toxic” in each case. Also, in the series with RAW264.7 [2], the inhibition at 20 µM amounted to 72.2%. The inhibition in vivo at 20 mg/kg with Rattus norvegicus [5] was determined as 68.3%. Also, the viability at 24 h, 20 µM in series [4] was above 90%.

With `Cc1ccc(-c2cc(C(F)(F)F)nn2-c2ccc(S(N)(=O)=O)cc2)cc1` [CELECOXIB], the Activity result in the series with Rattus norvegicus [1] and in the series on Rattus norvegicus [3] was “Non-toxic” in each case. In addition, in the series on RAW264.7 [2], the inhibition at 20 µM was determined as 53.4%. The inhibition in vivo at 20 mg/kg in the series on Rattus norvegicus [5] was determined as 67%.

On to `NS(=O)(=O)c1ccc2nc(N3N=C(c4ccc(Cl)cc4)CC3c3ccc(F)cc3)sc2c1` (stereo unspecified), for which the inhibition at 20 µM in the series on RAW264.7 [2] is 38%. Also, the viability at 24 h, 20 µM in series [4] stood at 86%.

Regarding `NS(=O)(=O)c1ccc2nc(N3N=C(c4ccc(Cl)cc4)CC3c3ccc(Cl)cc3)sc2c1` (stereo unspecified), the Activity result in the series on Rattus norvegicus [1] and in the series on Rattus norvegicus [3] was “Non-toxic” throughout. The inhibition at 20 µM with RAW264.7 [2] was 38%. Moreover, the viability at 24 h, 20 µM in series [4] is above 90%.
